This is an account of results in PubChem BioAssay (NCI).

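Growth conditions: 96-well plates. Treatment: test compound, 48 hours, 5 concentrations. Analysis: linear interpolation between bracketing concentrations; unreached endpoints set to highest concentration. Definition used: TGI = concentration required for complete inhibition of growth.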 Where a SMILES comes first, the peptide text is derived from it. [ ]: non-standard residue; d: D form. The star is where a group is joined. ξ: configuration not given here. ξD = NC(CC(=O)O)C(=O)O; Boc = CC(C)(C)OC(=O)*; Aib = CC(C)(N)C(=O)O; OBn = c1ccc(CO*)cc1 Some results are limits rather than exact numbers.

Common to all, as to test: inhibition of tumour cell growth, NCI panel, 48 h
The test system of experiment [1] is HT29 colon.
The subject of experiment [2] is RPMI-8226 leukemia.
For experiment [3], the system named is UACC-257 melanoma.
Experiment [4] concerns SK-OV-3 ovarian.
Experiment [5] concerns NCI-H522 lung.

As to `COc1cc(/C=C2\CCC(C)C3=C2N=c2s/c(=C/c4ccc(Cl)cc4)c(=O)n2C3c2cc(OC)c(OC)c(OC)c2)cc(OC)c1OC` (stereo unspecified), the TGI in experiment [1], in experiment [2], in experiment [3] and in experiment [4] was over 100 µM each time.

As for `Cn1cc(NC(=O)Nc2cc(C(=O)Nc3cc(C(=O)Nc4ccc5cc(S(=O)(=O)O)cc(S(=O)(=O)O)c5c4)n(C)c3)n(C)c2)cc1C(=O)Nc1cc(C(=O)Nc2ccc3cc(S(=O)(=O)O)cc(S(=O)(=O)O)c3c2)n(C)c1`, the TGI in experiment [1], in experiment [2], in experiment [3], in experiment [4] and in experiment [5] was over 100 µM each time.

As to `COCN1C(=O)[C@@H]2C[C@@H](O)CN2C(=O)c2ccccc21`, the TGI in experiment [1], in experiment [2], in experiment [3], in experiment [4] and in experiment [5] was over 100 µM in each case.

As to `Fc1cc2nc3n(c2cc1F)C(c1c(F)cccc1F)SC3` (stereo unspecified), the TGI in experiment [1], in experiment [2], in experiment [3], in experiment [4] and in experiment [5] was over 100 µM throughout.

As for `CC(C)(C)OC(=O)NC(CC(=O)OCc1ccccc1)C(=O)NC(C)(C)C(N)=O` (stereo unspecified) (Boc-[ξD](OBn)-[Aib]-NH2), the TGI in experiment [1], in experiment [2], in experiment [3], in experiment [4] and in experiment [5] was over 100 µM in each case.

With `Cc1n[nH]c(=O)n1C1CC1`, the TGI in experiment [1], in experiment [2], in experiment [3], in experiment [4] and in experiment [5] was over 100 µM throughout.

Consider `Nc1ccc(Oc2ccc(C34CC5CC(C3)CC(c3ccc(Oc6ccc(N)cc6C(F)(F)F)cc3)(C5)C4)cc2)c(C(F)(F)F)c1`, for which the TGI in experiment [1] is 35.6 µM; in experiment [3], 40.3 µM; in experiment [4], 35.4 µM; in experiment [5], 30.3 µM.

With `CCC1C(NC(=O)OC)C(=O)N1[C@@H](C)c1ccccc1` (stereo partly specified), the TGI in experiment [1], in experiment [2], in experiment [3], in experiment [4] and in experiment [5] was over 100 µM each time.

As for `Cc1ccc(S(=O)(=O)C2=Cc3ccccc3C2(O)c2ccccc2)cc1` (stereo unspecified), the TGI in experiment [1] was 36.1 µM; in experiment [2], 44.7 µM; in experiment [3] it was over 10 µM; in experiment [4], 79.2 µM; in experiment [5] it was 65 µM.

For the compound `C/C(=N\O)c1ccc(OCc2cc(C(F)(F)F)cc(C(F)(F)F)c2)cc1`, the TGI in experiment [1], in experiment [3], in experiment [4] and in experiment [5] was over 100 µM each time.

As for `Cc1cc(C)c(/C=C2\C(=O)Nc3ccccc32)[nH]1`, the TGI in experiment [1], in experiment [2], in experiment [3], in experiment [4] and in experiment [5] was over 100 µM throughout.

Turning to `COc1cc(C2c3cc4c(cc3OC(NNC(N)=S)C2C)OCO4)cc(OC)c1OC` (stereo unspecified), the TGI in experiment [1] is 2.6 µM; in experiment [2], 0.847 µM; in experiment [3] it was over 92.7 µM; in experiment [4] it was over 100 µM; in experiment [5], 1.24 µM.

Regarding `CCOC(=O)C1=C(C(=O)OCC)SC2(S1)C(C(=O)OCC)=C(C(=O)OCC)Sc1c2ssc1=O`, the TGI came out at 3.75 µM in experiment [1]; 4.56 µM in experiment [2]; 3.1 µM in experiment [3]; 10.9 µM in experiment [4]; 4.46 µM in experiment [5].

For `Cc1cccc(N=Nc2c(C)nn(C(=O)CC(=O)Nc3ccc(Cl)cc3)c2C)c1`, the TGI in experiment [1], in experiment [2], in experiment [3], in experiment [4] and in experiment [5] was over 100 µM in each case.

As for `CCOC(=O)C1CCCc2sc(N)c(C#N)c21` (stereo unspecified), the TGI in experiment [1], in experiment [2] and in experiment [3] was over 100 µM throughout.

As for `CC(NNC(=O)c1ccncc1)c1ccccc1` (stereo unspecified), the TGI in experiment [1], in experiment [2], in experiment [3] and in experiment [4] was over 100 µM in each case.

With `COc1c(Sc2c(SCSc3cnc4ccccc4c3Sc3cnc4ccccc4c3OC)cnc3ccccc23)cnc2ccccc12`, the TGI in experiment [1], in experiment [2], in experiment [3] and in experiment [5] was over 100 µM throughout.

Turning to `Nc1nc(Cl)c(N)c(NCC2(CO)CCC(OCc3ccccc3)C2)n1` (stereo unspecified), the TGI in experiment [1], in experiment [4] and in experiment [5] was over 100 µM each time.

As to `COc1cccc([C@@H]2C/C(=N\NC(=O)C(=O)N[C@@H](C)c3ccccc3)c3ccccc3N2)c1`, the TGI in experiment [2], in experiment [3] and in experiment [4] was over 100 µM throughout.

Turning to `COc1ccc2c(=O)c3ccoc3[nH]c2c1`, the TGI in experiment [1], in experiment [2], in experiment [3] and in experiment [4] was over 100 µM throughout.

`NC(=O)c1ncn(C2C=CC(CP(=O)(O)O)C2)c1N` (stereo unspecified): the TGI in experiment [1], in experiment [2], in experiment [3] and in experiment [4] was over 100 µM throughout.

As for `O=c1c2ccccc2n2c(-c3ccccc3O)nnc2n1-c1ccccc1`, the TGI in experiment [1], in experiment [3], in experiment [4] and in experiment [5] was over 100 µM throughout.

For the compound `CC(C)CC(=O)CC(C)[C@]1(CCCOCc2ccccc2)C(=O)N2CCC3(C[C@@]24CCC[C@H]41)OCCO3` (stereo partly specified), the TGI in experiment [2], in experiment [4] and in experiment [5] was over 10 µM each time.

As to `CC(=O)C1C(=O)C(=O)N(c2ccc([N+](=O)[O-])cc2[N+](=O)[O-])C1=O` (stereo unspecified), the TGI in experiment [1], in experiment [3], in experiment [4] and in experiment [5] was over 100 µM each time.

With `CCOC(=O)C(=[N+]=[N-])C(=O)CSC#N`, the TGI in experiment [1] was over 100 µM; in experiment [3] it was over 100 µM; in experiment [4], over 100 µM; in experiment [5] it was 79.4 µM.

For `Oc1ccc(Br)cc1C=Nc1c(NC2CCCCC2)oc2ccc(Br)cc12`, the TGI was 78.4 µM in experiment [1], over 100 µM in experiment [2], over 100 µM in experiment [3] and over 100 µM in experiment [4].
